# Test results taken from PubChem BioAssay AID1963432 (Molecular Pharmacology Branch, DTP, NCI, 2024).
# Values joined by “and” are separate entries in the source; they are usually repeats but may differ in a detail not shown here. Equal values may be shown once.
# Tested on: SYO-1 complex spheroid growth, percent test/control
# Experiment: Anticancer human tumor SYO-1 cell line growth inhibition [Asc];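 also: compound exposure lasted 7 days after spheroids grew 3 days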;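 as to viability, T/C: 100% = DMSO vehicle control viability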
# Details: for viability, T/C: stronger effect = lower value
# Protocol: Multicellular complex tumor spheroid response to apoptosis pathway targeting inhibitors Alrizomadlin, Pelcitoclax, and Dasminapant in combination with a variety of drugs and investigational agents in selected tumor cell lines
# The MDM2 inhibitor alrizomadlin, the Bcl-2/Bcl-xL inhibitor pelcitoclax, and the IAPs inhibitor dasminapant were evaluated both individually and in combination with standard of care and investigational anticancer small molecules within a complex spheroid model of solid tumors. . Complex spheroids include a stromal component modeled by human endothelial cells (HUVEC) and fibroblasts modeled by human mesenchymal stem cells (MSCs). The concentration ranges selected for each drug and investigational agent were based upon clinically achievable concentrations if the clinical Cmax of the agent was known.
# Compounds. The drugs and investigational agents: alrizomadlin (APG-115; NSC831270), pelcitoclax (APG-1252; NSC835773), dasminapant (APG-1387;NSC834197), TAK-243 (NSC785004), copanlisib (NSC809693), olaparib (NSC753686), talazoparib (NSC767125), cobimetinib (NSC 768068), eltanexor (KPT-8602, NSC 794443), abemaciclib (NSC 768073), sotorasib (NSC818433), adagrasib (NSC 831453), MRTX-1133 (NSC 836407), Iadademestat (ORY1001, NSC 806812), and RMC-4630 (NSC839698), were obtained from the NCI Developmental Therapeutics Program Chemical Repository. The FDA-approved anticancer drug set is available from the Developmental Therapeutics Program at https://dtp.cancer.gov/organization/dscb/obtaining/available plates.htm. […] The stock solutions were prepared in dimethyl sulfoxide (DMSO, Sigma-Aldrich, St. Louis, MO, cat. D2650) at 800-fold the tested concentration and stored at -70 degrees C prior to their use. All drugs and investigational agents were tested over a range starting from a high concentration at or near the clinical Cmax and decreasing in half-log increments. If the clinical Cmax for an agent had not been determined, the highest concentration tested was 10 microM.
# The patient-derived cancer (PDC) cell lines include five colon adenocarcinomas: 186277-243-T-J2-PDC, 616215-338-R-J1-PDC, 439559-082-T-J2-PDC, 463943-066-T-J2-PDC, and 519858-162-T-J1-PDC; three pancreatic carcinomas: 323965-272-R-J2-PDC, 521955-158-R6-J3-PDC, and 521955-158-R2-J5-PDC; two uterine sarcomas: 327498-152-R-J2-PDC and 993429-296-R-J1-PDC; two rhabdomyosarcomas: 755483-174-R-J1-PDC and 772245-204-R-J1-PDC; two soft tissue sarcomas: 126254-015-R-J1-PDC and 494315-158-R-J1-PDC; two malignant fibrous histiocytomas: 317291-083-R-J1-PDC and 596521-263-R-J1-PDC; two breast carcinomas: 171881-019-R-J1-PDC and 885512-296-R-J2-PDC; and one ovarian carcinoma: 6556581-035-R-J-PDC were obtained from the NCI PDMR, (https://pdmr.cancer.gov). The established cell lines HSSY-2 synovial sarcoma (RRID:CVCL 8719), SYO-1 synovial sarcoma (RRID:CVCL_7146), MPNST malignant peripheral neural sheath tumor were obtained from the Sloan Kettering Institute. The following established cell lines were purchased from the American Type Culture Collection (ATCC, Manassas, VA), Sor the received from the NCI repository:, PANC-1 pancreatic carcinoma (CRL-1469, RRID:CVCL_0480), OVCAR-5 ovarian carcinoma (RRID:CVCL_1628), OVCAR-8 ovarian carcinoma (RRID:CVCL_1629), , MCF-7 breast carcinoma (CRL-12584, RRID:CVCL_0031), MDA-MB-231 breast carcinoma (CRL-12532, RRID:CVCL_0062), NCI-H1876 small cell lung carcinoma (CRL-5902, RRID:CVCL_1503), NCI-H510A small cell lung carcinoma (HTB-184, RRID:CVCL_1565), NCI-H1417 (CRL-5869, RRID:CVCL_1469), and NCI-H196 small cell lung carcinoma (CRL-5823, RRID:CVCL_1509). Dr. Peter Houghton (Greehey Children's Cancer Research Institute, University of Texas Health Science Center, San Antonio, TX) provided Rh-18 rhabdomyosarcoma (RRID:CVCL_1659). Pooled donor human umbilical vein endothelial cells (HUVEC, Lonza, cat. CC-2519) and human mesenchymal stem cells (hMSC, Lonza, cat. PT-2501) were purchased from Lonza (Walkersville, MD).
# Cell Culture. […]
# [1] = compound alone, run of 11/07/2022
IC50 (curve of compound),SMILES,"viability, T/C (compound 0.0316 µM)","viability, T/C (compound 0.1 µM)","viability, T/C (compound 0.316 µM)","viability, T/C (compound 1 µM)","viability, T/C (compound 3.16 µM)","viability, T/C (compound 10 µM)","viability, T/C (compound 0.00316 µM)","viability, T/C (compound 0.01 µM)",further results
> 10 µM,C#Cc1c(F)ccc2cc(O)cc(-c3ncc4c(N5CC6CCC(C5)N6)nc(OCC56CCCN5CC(F)C6)nc4c3F)c12 (centres undefined),111% and 98.5% and 108%,95.5% and 92.2% and 96.9%,108% and 95.5% and 110%,98.9% and 101% and 109%,111% and 117% and 105%,105% and 97.4% and 103%,–,–,–
5.54 µM and 5.31 µM and 5.37 µM,C=C(F)C(=O)N1CCN(c2nc(OCC3CCCN3C)nc3c2CCN(c2cccc4cccc(Cl)c24)C3)CC1CC#N (centres undefined),107% and 98.8% and 99.1%,102% (2×) and 96.3%,97.5% and 101% and 100%,95.2% and 101% and 113%,97.3% and 90.3% and 92.2%,0.28% and 0.79% and 0.39%,–,–,–
> 10 µM,C=CC(=O)N1CCN(c2nc(=O)n(-c3c(C)ccnc3C(C)C)c3nc(-c4c(O)cccc4F)c(F)cc23)C(C)C1 (centres undefined),100% and 96.9% and 116%,108% and 98.8% and 106%,104% (2×) and 99.7%,103% (2×) and 104%,98.7% and 95.2% and 101%,94.3% and 87.2% and 89.7%,–,–,–
0.142 µM and 0.178 µM,CCN1C(C(=O)NC23CCC(C(=O)O)(CC2)CC3)C(c2cccc(Cl)c2F)C2(C(=O)Nc3cc(Cl)ccc32)C12CCCCC2 (centres undefined),–,–,–,–,–,–,–,–,"viability, T/C (compound 0.00949 µM): 103% [middle of 9 runs]; viability, T/C (compound 0.03 µM): 99.3% [middle of 9 runs]; viability, T/C (compound 0.3 µM): 25.9% [middle of 9 runs]; viability, T/C (compound 0.949 µM): 3.45% [middle of 9 runs]; viability, T/C (compound 3 µM): 1.23% [middle of 9 runs]; IC50 [1]: 189 nM [middle of 7 runs]"
> 1 µM,CCN1CCN(Cc2ccc(Nc3ncc(F)c(-c4cc(F)c5nc(C)n(C(C)C)c5c4)n3)nc2)CC1,107% and 106% and 109%,114% and 118% and 115%,115% and 128% and 112%,106% and 111% and 112%,–,–,103% (2×) and 101%,99.9% and 103% and 110%,–
> 1 µM,CNC(C)C(=O)NC1CN(S(=O)(=O)c2cccc(S(=O)(=O)N3CCC4CCC(C(=O)NC(c5ccccc5)c5ccccc5)N4C(=O)C(NC(=O)C(C)NC)C3)c2)CCC2CCC(C(=O)NC(c3ccccc3)c3ccccc3)N2C1=O (centres undefined),98.2% [middle of 14 runs],–,98.7% [middle of 14 runs],96.6% [middle of 14 runs],–,–,109% and 90.1% and 99.2%,102% [middle of 14 runs],"IC50 (compound alone, run of 10/24/2022): > 1 µM; IC50 (compound alone, run of 11/15/2022): > 1 µM"
0.741 µM and 0.9 µM and > 1 µM,COc1c(OCCCN2CCOCC2)ccc2c3n(c(=NC(=O)c4cnc(N)nc4)nc12)CCN3,95.3% and 108% and 113%,95.4% and 101% and 107%,76.1% and 87.7% and 90.5%,40.2% and 46.1% and 63.6%,–,–,111% and 102% and 109%,105% and 112% and 114%,–
–,Cc1c(S(C)(=O)=O)c(-c2cc(F)cc(N3CCN(c4ccc(NS(=O)(=O)c5ccc(NC(CCN6CCC(C(=O)OCCCP(=O)(O)O)CC6)CSc6ccccc6)c(S(=O)(=O)C(F)(F)F)c5)cc4)CC3)c2)c(-c2ccc(Cl)cc2)n1C(C)C (centres undefined),102% [middle of 7 runs],100% [middle of 7 runs],96.5% [middle of 7 runs],90.6% [middle of 7 runs],88.6% [middle of 7 runs],79% [middle of 7 runs],–,–,IC50 [1]: > 10 µM
> 3 µM,Cc1nc(N2CCC3(CC2)COC(C)C3N)c(CO)nc1Sc1ccnc(N)c1Cl (centres undefined),–,–,–,–,–,–,–,–,"viability, T/C (compound 0.00949 µM): 107% and 98.7% and 112%; viability, T/C (compound 0.03 µM): 112% and 94% and 111%; viability, T/C (compound 0.0949 µM): 107% and 116% and 103%; viability, T/C (compound 0.3 µM): 108% and 109% (2×); viability, T/C (compound 0.949 µM): 112% and 114% and 107%; viability, T/C (compound 3 µM): 103% and 100% and 109%"
0.0348 µM and > 0.1 µM and 0.0435 µM,Cn1ncnc1[C@H]1c2n[nH]c(=O)c3cc(F)cc(c23)N[C@@H]1c1ccc(F)cc1,53.5% and 74.9% and 64.4%,15% and 91.9% and 12.5%,–,–,–,–,104% and 97.3% and 107%,87.3% and 95.5% and 98.1%,"viability, T/C (compound 0.000316 µM): 105% and 109% and 104%; viability, T/C (compound 0.001 µM): 103% and 106% and 95.2%"
0.18 µM and 0.183 µM and 0.257 µM,NC(=O)C(=Cn1cnc(-c2cc(C(F)(F)F)cc(C(F)(F)F)c2)n1)c1cncnc1,–,–,–,–,–,–,–,–,"viability, T/C (compound 0.000949 µM): 97.3% and 93.8% and 106%; viability, T/C (compound 0.003 µM): 98.8% and 101% and 104%; viability, T/C (compound 0.00949 µM): 97.4% and 98% and 95.6%; viability, T/C (compound 0.03 µM): 96.9% and 95.8% and 107%; viability, T/C (compound 0.0949 µM): 95.9% and 94.2% and 99.5%; viability, T/C (compound 0.3 µM): 13.3% and 16.5% and 42.3%"
> 0.1 µM,NC1CCC(NC2CC2c2ccccc2)CC1 (centres undefined),91.9% and 96.6% and 88.2%,90.8% and 84.5% and 86.5%,–,–,–,–,90.9% and 95.4% and 93.3%,94.7% and 89.3% and 92.9%,"viability, T/C (compound 0.000316 µM): 108% and 106% and 112%; viability, T/C (compound 0.001 µM): 102% and 97% and 97.1%"
2.5 µM and 3.1 µM and 4.81 µM,O=C(c1cc(Cc2n[nH]c(=O)c3ccccc23)ccc1F)N1CCN(C(=O)C2CC2)CC1,96.5% and 98.2% and 111%,91.4% and 91.9% and 103%,102% and 99.6% and 101%,96.7% and 105% and 95.2%,38% and 49.1% and 73.5%,6.76% and 6.7% and 10.1%,–,–,–
> 1 µM,O=C(c1ccc(F)c(F)c1Nc1ccc(I)cc1F)N1CC(O)([C@@H]2CCCCN2)C1,103% (2×) and 102%,108% (2×) and 102%,111% and 99.2% and 96.4%,104% and 106% and 101%,–,–,105% and 97.6% and 106%,104% and 97% and 105%,–
